# Source: ChEMBL document CHEMBL1137022, “The Ssk1p response regulator and Chk1p histidine kinase mutants of Candida albicans are hypersensitive to fluconazole and voriconazole” (Antimicrob Agents Chemother, 2007)
# Active and inactive are the calls of the source. The rule behind the calls is not given here.
# Assays:
# Candida albicans [1] = assay: Fungicidal activity against wild type Candida albicans CAF2-1 assessed as reduction in cell viability at 4 times MIC of SSK21/CHK21 after 24 hrs; type: functional, organism-based
# Candida albicans [2] = assay: Fungistatic activity against wild type Candida albicans CAF2-1 after 24 to 48 hrs by broth microdilution assay; type: functional
# Candida albicans [3] = assay: Fungistatic activity against Candida albicans SSK21 after 24 to 48 hrs by broth microdilution assay; type: functional
# Candida albicans [4] = assay: Fungistatic activity against Candida albicans SSK23 after 24 to 48 hrs by broth microdilution assay; type: functional
# Candida albicans [5] = assay: Fungistatic activity against Candida albicans CHK21 after 24 to 48 hrs by broth microdilution assay; type: functional
# Candida albicans [6] = assay: Fungistatic activity against Candida albicans CHK23 after 24 to 48 hrs by broth microdilution assay; type: functional
# Candida albicans [7] = assay: Fungicidal activity against Candida albicans SSK21 assessed as reduction in cell viability at 4 times MIC after 24 hrs; type: functional, organism-based
# Candida albicans [8] = assay: Fungicidal activity against Candida albicans SSK23 assessed as reduction in cell viability at 4 times MIC of SSK21/CHK21 after 24 hrs; type: functional, organism-based
# Candida albicans [9] = assay: Fungicidal activity against Candida albicans CHK21 assessed as reduction in cell viability at 4 times MIC after 24 hrs; type: functional, organism-based
# Candida albicans [10] = assay: Fungicidal activity against Candida albicans CHK23 assessed as reduction in cell viability at 4 times MIC of SSK21/CHK21 after 24 hrs; type: functional, organism-based
# Candida albicans [11] = assay: Fungicidal activity against wild type Candida albicans CAF2-1 assessed as reduction in cell viability at MIC of SSK21/CHK21 after 24 hrs; type: functional, organism-based
# Candida albicans [12] = assay: Fungicidal activity against Candida albicans SSK21 assessed as reduction in cell viability at MIC after 24 hrs; type: functional, organism-based
# Candida albicans [13] = assay: Fungicidal activity against Candida albicans SSK23 assessed as reduction in cell viability at MIC of SSK21/CHK21 after 24 hrs; type: functional, organism-based
# Candida albicans [14] = assay: Fungicidal activity against Candida albicans CHK21 assessed as reduction in cell viability at MIC after 24 hrs; type: functional, organism-based
# Candida albicans [15] = assay: Fungicidal activity against Candida albicans CHK23 assessed as reduction in cell viability at MIC of SSK21/CHK21 after 24 hrs; type: functional, organism-based
# Candida albicans [16] = assay: Ratio of MIC for Candida albicans CHK21 to MIC for Candida albicans SSK21; type: functional
# Candida albicans [17] = assay: Fungistatic activity against Candida albicans SKN7 mutant after 24 to 48 hrs by broth microdilution assay; type: functional, organism-based
# Candida albicans [18] = assay: Fungistatic activity against Candida albicans SLN1 HK mutant after 24 to 48 hrs by broth microdilution assay; type: functional, organism-based
# Candida albicans [19] = assay: Drug uptake in Candida albicans SSK21 at 3.6 ng/ml after 1 hrs by liquid scintillation counting relative to wild type Candida albicans CAF2-1; type: ADME, organism-based
structure (smiles),measurement,setting,value
OC(Cn1cncn1)(Cn1cncn1)c1ccc(F)cc1F [FLUCONAZOLE],Activity,Candida albicans [1],Active
same,MIC,Candida albicans [2],16 µg/mL
same,MIC,Candida albicans [3],0.032 µg/mL
same,MIC,Candida albicans [4],0.25 µg/mL
same,MIC,Candida albicans [5],1 µg/mL
same,MIC,Candida albicans [6],16 µg/mL
same,Activity,Candida albicans [7],Active
same,Activity,Candida albicans [8],Active
same,Activity,Candida albicans [9],Active
same,Activity,Candida albicans [10],Active
same,Activity,Candida albicans [11],inactive
same,Activity,Candida albicans [12],inactive
same,Activity,Candida albicans [13],inactive
same,Activity,Candida albicans [14],inactive
same,Activity,Candida albicans [15],inactive
same,Ratio,Candida albicans [16],30
C[C@@H](c1ncncc1F)[C@](O)(Cn1cncn1)c1ccc(F)cc1F [VORICONAZOLE],Activity,Candida albicans [1],Active
same,MIC,Candida albicans [2],0.5 µg/mL
same,MIC,Candida albicans [3],0.008 µg/mL
same,MIC,Candida albicans [4],0.064 µg/mL
same,MIC,Candida albicans [5],0.015 µg/mL
same,MIC,Candida albicans [6],1 µg/mL
same,Activity,Candida albicans [17],Active
same,Activity,Candida albicans [18],Active
same,Activity,Candida albicans [7],Active
same,Activity,Candida albicans [8],Active
same,Activity,Candida albicans [9],Active
same,Activity,Candida albicans [10],Active
same,Activity,Candida albicans [11],inactive
same,Activity,Candida albicans [12],inactive
same,Activity,Candida albicans [13],inactive
same,Activity,Candida albicans [14],inactive
same,Activity,Candida albicans [15],inactive
CC(=O)N1CCN(c2ccc(OCC3COC(Cn4ccnc4)(c4ccc(Cl)cc4Cl)O3)cc2)CC1 (configuration not stated),Activity,Candida albicans [3],Active
same,Activity,Candida albicans [5],Active
[3H]OC(Cn1cncn1)(Cn1cncn1)c1ccc(F)cc1F [[3H]FLUCONAZOLE],fold change (FC),Candida albicans [19],2
C[C@@H]1[C@H](O)[C@@H](C)/C=C/C=C/C=C/C=C/C=C/C=C/C=C/[C@H](O[C@@H]2O[C@H](C)[C@@H](O)[C@H](N)[C@@H]2O)C[C@@H]2O[C@](O)(C[C@@H](O)C[C@@H](O)[C@H](O)CC[C@@H](O)C[C@@H](O)CC(=O)O[C@H]1C)C[C@H](O)[C@H]2C(=O)O,Activity,Candida albicans [3],Active
same,Activity,Candida albicans [5],Active
CC[C@H](C)C[C@H](C)CCCCCCCCC(=O)N[C@H]1C[C@@H](O)[C@@H](NCCN)NC(=O)[C@@H]2[C@@H](O)CCN2C(=O)[C@H]([C@H](O)CCN)NC(=O)[C@H]([C@H](O)[C@@H](O)c2ccc(O)cc2)NC(=O)[C@@H]2C[C@@H](O)CN2C(=O)[C@H]([C@@H](C)O)NC1=O,Activity,Candida albicans [3],Active
same,Activity,Candida albicans [5],Active
Clc1ccc(COC(Cn2ccnc2)c2ccc(Cl)cc2Cl)c(Cl)c1 (configuration not stated),Activity,Candida albicans [3],Active
same,Activity,Candida albicans [5],Active
